Reference: the NIST ThermoML archive (doi:10.1016/j.jct.2004.12.008)

Test: xn = mol fraction of the nth substance listed
Conditions: 101 kPa, Liquid

C=Cc1ccccc1 [styrene] + O=[N+]([O-])c1ccccc1
Conditions | mass density [kg/m3]
293.15 K, x1 = 0.0536 | 1185.47
293.15 K, x1 = 0.1324 | 1160.15
293.15 K, x1 = 0.1909 | 1141.63
293.15 K, x1 = 0.2564 | 1121.18
293.15 K, x1 = 0.3257 | 1099.86
293.15 K, x1 = 0.3986 | 1077.76
293.15 K, x1 = 0.4576 | 1060.12
293.15 K, x1 = 0.5243 | 1040.42
293.15 K, x1 = 0.5888 | 1021.61
293.15 K, x1 = 0.6424 | 1006.13
293.15 K, x1 = 0.7156 | 985.23
293.15 K, x1 = 0.7756 | 968.27
293.15 K, x1 = 0.8324 | 952.34
293.15 K, x1 = 0.8755 | 940.34
293.15 K, x1 = 0.9424 | 921.83
293.15 K, x1 = 1 | 906
303.15 K, x1 = 0.0621 | 1173.19
303.15 K, x1 = 0.1248 | 1152.93
303.15 K, x1 = 0.1822 | 1134.64
303.15 K, x1 = 0.2429 | 1115.56
303.15 K, x1 = 0.3139 | 1093.59
303.15 K, x1 = 0.3571 | 1080.39
303.15 K, x1 = 0.4249 | 1059.93
303.15 K, x1 = 0.4819 | 1042.96
303.15 K, x1 = 0.5487 | 1023.33
303.15 K, x1 = 0.5901 | 1011.29
303.15 K, x1 = 0.6528 | 993.23
303.15 K, x1 = 0.7289 | 971.58
303.15 K, x1 = 0.7913 | 954.03
303.15 K, x1 = 0.8592 | 935.12
303.15 K, x1 = 0.9368 | 913.72
303.15 K, x1 = 1 | 896.44
313.15 K, x1 = 0.0492 | 1167.15
313.15 K, x1 = 0.1189 | 1144.52
313.15 K, x1 = 0.1898 | 1121.9
313.15 K, x1 = 0.2563 | 1101.03
313.15 K, x1 = 0.3398 | 1075.31
313.15 K, x1 = 0.4018 | 1056.54
313.15 K, x1 = 0.4621 | 1038.54
313.15 K, x1 = 0.5243 | 1020.21
313.15 K, x1 = 0.5811 | 1003.69
313.15 K, x1 = 0.6421 | 986.16
313.15 K, x1 = 0.7132 | 965.98
313.15 K, x1 = 0.7723 | 949.39
313.15 K, x1 = 0.8421 | 930.01
313.15 K, x1 = 0.8942 | 915.68
313.15 K, x1 = 0.9524 | 899.79
313.15 K, x1 = 1 | 886.88
323.15 K, x1 = 0.0598 | 1152.7
323.15 K, x1 = 0.1329 | 1129.06
323.15 K, x1 = 0.1942 | 1109.58
323.15 K, x1 = 0.2458 | 1093.41
323.15 K, x1 = 0.3239 | 1069.35
323.15 K, x1 = 0.3891 | 1049.61
323.15 K, x1 = 0.4314 | 1036.97
323.15 K, x1 = 0.5028 | 1015.92
323.15 K, x1 = 0.5622 | 998.67
323.15 K, x1 = 0.6321 | 978.64
323.15 K, x1 = 0.6873 | 963.03
323.15 K, x1 = 0.7419 | 947.74
323.15 K, x1 = 0.8054 | 930.15
323.15 K, x1 = 0.8823 | 909.1
323.15 K, x1 = 0.9339 | 895.1
323.15 K, x1 = 1 | 877.32
333.15 K, x1 = 0.0647 | 1139.39
333.15 K, x1 = 0.1278 | 1119.07
333.15 K, x1 = 0.1825 | 1101.73
333.15 K, x1 = 0.2542 | 1079.38
333.15 K, x1 = 0.3183 | 1059.76
333.15 K, x1 = 0.3798 | 1041.24
333.15 K, x1 = 0.4248 | 1027.86
333.15 K, x1 = 0.4892 | 1008.97
333.15 K, x1 = 0.5329 | 996.32
333.15 K, x1 = 0.5892 | 980.2
333.15 K, x1 = 0.6379 | 966.41
333.15 K, x1 = 0.7132 | 945.37
333.15 K, x1 = 0.7987 | 921.85
333.15 K, x1 = 0.868 | 903.04
333.15 K, x1 = 0.9468 | 881.9
333.15 K, x1 = 1 | 867.76
343.15 K, x1 = 0.0687 | 1125.66
343.15 K, x1 = 0.1139 | 1111.2
343.15 K, x1 = 0.1842 | 1089.06
343.15 K, x1 = 0.2389 | 1072.13
343.15 K, x1 = 0.3234 | 1046.47
343.15 K, x1 = 0.3894 | 1026.81
343.15 K, x1 = 0.4346 | 1013.54
343.15 K, x1 = 0.4903 | 997.4
343.15 K, x1 = 0.5538 | 979.25
343.15 K, x1 = 0.614 | 962.29
343.15 K, x1 = 0.6622 | 948.88
343.15 K, x1 = 0.7319 | 929.71
343.15 K, x1 = 0.7922 | 913.35
343.15 K, x1 = 0.8531 | 896.99
343.15 K, x1 = 0.9234 | 878.32
343.15 K, x1 = 1 | 858.2
353.15 K, x1 = 0.055 | 1116.88
353.15 K, x1 = 0.1376 | 1090.79
353.15 K, x1 = 0.1726 | 1079.91
353.15 K, x1 = 0.2389 | 1059.6
353.15 K, x1 = 0.302 | 1040.61
353.15 K, x1 = 0.3791 | 1017.85
353.15 K, x1 = 0.4349 | 1001.66
353.15 K, x1 = 0.5139 | 979.13
353.15 K, x1 = 0.5628 | 965.4
353.15 K, x1 = 0.6249 | 948.19
353.15 K, x1 = 0.6733 | 934.94
353.15 K, x1 = 0.7234 | 921.37
353.15 K, x1 = 0.7981 | 901.38
353.15 K, x1 = 0.8621 | 884.47
353.15 K, x1 = 0.9412 | 863.83
353.15 K, x1 = 1 | 848.64

O=[N+]([O-])c1ccccc1 [nitrobenzene] + Cc1ccc(C)cc1
Conditions | mass density [kg/m3]
293.15 K, x2 = 0 | 1202.95
293.15 K, x2 = 0.0587 | 1179.74
293.15 K, x2 = 0.1232 | 1154.82
293.15 K, x2 = 0.1933 | 1128.38
293.15 K, x2 = 0.2516 | 1106.86
293.15 K, x2 = 0.3298 | 1078.63
293.15 K, x2 = 0.3891 | 1057.67
293.15 K, x2 = 0.4423 | 1039.19
293.15 K, x2 = 0.4983 | 1020.04
293.15 K, x2 = 0.5512 | 1002.23
293.15 K, x2 = 0.6242 | 978.08
293.15 K, x2 = 0.6943 | 955.34
293.15 K, x2 = 0.7523 | 936.85
293.15 K, x2 = 0.8211 | 915.28
293.15 K, x2 = 0.8723 | 899.49
293.15 K, x2 = 0.9421 | 878.29
303.15 K, x2 = 0 | 1193.56
303.15 K, x2 = 0.0623 | 1168.84
303.15 K, x2 = 0.1123 | 1149.43
303.15 K, x2 = 0.1823 | 1122.85
303.15 K, x2 = 0.2429 | 1100.38
303.15 K, x2 = 0.3189 | 1072.84
303.15 K, x2 = 0.3894 | 1047.9
303.15 K, x2 = 0.4376 | 1031.16
303.15 K, x2 = 0.4889 | 1013.63
303.15 K, x2 = 0.5321 | 999.06
303.15 K, x2 = 0.6078 | 973.98
303.15 K, x2 = 0.6731 | 952.79
303.15 K, x2 = 0.7561 | 926.4
303.15 K, x2 = 0.8247 | 905.05
303.15 K, x2 = 0.8871 | 885.97
303.15 K, x2 = 0.9316 | 872.57
313.15 K, x2 = 0 | 1183.36
313.15 K, x2 = 0.0598 | 1159.6
313.15 K, x2 = 0.1342 | 1130.81
313.15 K, x2 = 0.1732 | 1116.05
313.15 K, x2 = 0.2311 | 1094.53
313.15 K, x2 = 0.3239 | 1060.94
313.15 K, x2 = 0.3971 | 1035.18
313.15 K, x2 = 0.4576 | 1014.35
313.15 K, x2 = 0.514 | 995.29
313.15 K, x2 = 0.5672 | 977.61
313.15 K, x2 = 0.6234 | 959.24
313.15 K, x2 = 0.6831 | 940.06
313.15 K, x2 = 0.7421 | 921.43
313.15 K, x2 = 0.7901 | 906.5
313.15 K, x2 = 0.8611 | 884.8
313.15 K, x2 = 0.9287 | 864.54
323.15 K, x2 = 0 | 1172.38
323.15 K, x2 = 0.048 | 1153.29
323.15 K, x2 = 0.1243 | 1123.72
323.15 K, x2 = 0.1892 | 1099.28
323.15 K, x2 = 0.2572 | 1074.3
323.15 K, x2 = 0.3249 | 1050.03
323.15 K, x2 = 0.4023 | 1022.99
323.15 K, x2 = 0.4683 | 1000.47
323.15 K, x2 = 0.5138 | 985.24
323.15 K, x2 = 0.5871 | 961.14
323.15 K, x2 = 0.6422 | 943.39
323.15 K, x2 = 0.7139 | 920.72
323.15 K, x2 = 0.7811 | 899.92
323.15 K, x2 = 0.8428 | 881.17
323.15 K, x2 = 0.8781 | 870.6
323.15 K, x2 = 0.9424 | 851.62
333.15 K, x2 = 0 | 1160.59
333.15 K, x2 = 0.0668 | 1134.27
333.15 K, x2 = 0.1235 | 1112.51
333.15 K, x2 = 0.1983 | 1084.57
333.15 K, x2 = 0.2547 | 1064.03
333.15 K, x2 = 0.3133 | 1043.14
333.15 K, x2 = 0.3942 | 1015.02
333.15 K, x2 = 0.4789 | 986.4
333.15 K, x2 = 0.5287 | 969.96
333.15 K, x2 = 0.5902 | 950.01
333.15 K, x2 = 0.6517 | 930.44
333.15 K, x2 = 0.7244 | 907.78
333.15 K, x2 = 0.7923 | 887.08
333.15 K, x2 = 0.8321 | 875.13
333.15 K, x2 = 0.8832 | 860
333.15 K, x2 = 0.9329 | 845.51
343.15 K, x2 = 0 | 1147.99
343.15 K, x2 = 0.0623 | 1123.65
343.15 K, x2 = 0.1324 | 1097.02
343.15 K, x2 = 0.1824 | 1078.5
343.15 K, x2 = 0.2561 | 1051.86
343.15 K, x2 = 0.3249 | 1027.65
343.15 K, x2 = 0.3867 | 1006.43
343.15 K, x2 = 0.4562 | 983.11
343.15 K, x2 = 0.5139 | 964.17
343.15 K, x2 = 0.5719 | 945.49
343.15 K, x2 = 0.6317 | 926.6
343.15 K, x2 = 0.691 | 908.21
343.15 K, x2 = 0.7613 | 886.86
343.15 K, x2 = 0.8312 | 866.07
343.15 K, x2 = 0.8931 | 848.03
343.15 K, x2 = 0.9537 | 830.69
353.15 K, x2 = 0 | 1134.61
353.15 K, x2 = 0.0479 | 1116.05
353.15 K, x2 = 0.1123 | 1091.72
353.15 K, x2 = 0.1742 | 1068.95
353.15 K, x2 = 0.2498 | 1041.91
353.15 K, x2 = 0.3013 | 1023.94
353.15 K, x2 = 0.3781 | 997.79
353.15 K, x2 = 0.4538 | 972.7
353.15 K, x2 = 0.5247 | 949.8
353.15 K, x2 = 0.6149 | 921.44
353.15 K, x2 = 0.662 | 906.96
353.15 K, x2 = 0.7137 | 891.32
353.15 K, x2 = 0.7832 | 870.68
353.15 K, x2 = 0.8312 | 856.69
353.15 K, x2 = 0.8813 | 842.3
353.15 K, x2 = 0.9422 | 825.1
